pEC50: −log10 of the molar value. Counter-ions that a name gives are not always drawn. Marks after values point to notes of the source that are not given here.
Legend:
Crl:CD(SD) rats = test: Evaluation of taste aversion by drinking water; type: in vivo, rat; settings: two-bottle choice, overnight
Experimental: Test Example 3: Evaluation of Taste Aversion by Drinking Water
This test is for evaluating the taste aversion of drugs. The test was carried out by, while keeping Crl:CD(SD) rats (8 rats per group, 8 weeks old at the time of arrival) in home cages, adding the test substance solutions to water bottles. Two water bottles per cage were prepared, each filled with vehicle (sterile water containing 0.05% ethanol) and the test substance solution, and kept overnight, and the amount of water consumed during that period was measured. The proportion of water consumed with the test substance was calculated from the total amount of water consumed from the two water bottles, and the evaluation of taste aversion was carried out. It can be evaluated that the larger the proportion of water consumed with the test substance, the smaller the taste aversion and the smaller the stimulatory properties caused by the test substance.

normal rats [1] = test: Desensitization of effect of increasing swallowing in normal rats; type: in vivo, rat; settings: for number of swallows, Average, First time: 1st of five administrations about 5 minutes apart; for number of swallows, Average, Second time: 2nd of five administrations about 5 minutes apart; for number of swallows, Average, Third time: 3rd of five administrations about 5 minutes apart; for number of swallows, Average, Fourth time: 4th of five administrations about 5 minutes apart; for number of swallows, Average, Fifth time: 5th of five administrations about 5 minutes apart; for number of swallows at repeated administrations compared to the 1st administration (Dunnett's test): five administrations about 5 minutes apart
Source text: Test Example 6: Evaluation with Respect to Desensitization of Effect of Increasing Swallowing in Normal Rats
TRPV1 agonists are known to induce TRPV1 desensitization when given at high doses or repeatedly. Using the same method as in Test Example 5, the effect of drugs on normal swallowing function in rats to induce desensitization was investigated. After the induction of anesthesia in Crl:CD(SD) male rats (7 to 8 rats per group, 8 to 9 weeks old, body weight 280 to 310 g: at the time of arrival), the animals were sheared under the jaw with clippers and held in a supine position on a heat pad kept at 37° C. to prevent limb movement. A sonde was inserted into the animals' mouths, and the tip of the sonde was retained in the pharynx. Under this condition, the test substance administration solution was administered at 12 ml/h for 10 seconds using an infusion pump, and the swallowing movements were measured for 30 seconds from the initiation of administration. Thereafter, the same test was performed about 5 minutes later, and the evaluation was repeated for a total of five times. Note that the vehicle used was saline solution containing 1% ethanol and 0.1% Tween 80.

normal rats [2] = test: Test for eye stimulatory properties in normal rats; type: in vivo, rat; settings: for Number of eye-wiping (Average ± Standard deviation): 10 μL into the right eye, observed for 1 minute
Experimental: Test Example 7: Evaluation with Respect to Test for Eye Stimulatory Properties in Normal Rats
It has been reported that TRPV1 agonists have stimulatory properties and that administration of TRPV1 agonist solutions to the eye can induce wiping behavior. The stimulatory properties of the compounds were investigated using normal rats. Crl:CD(SD) male rats (5 rats per group, 8 weeks old, body weight 271 to 320 g) were held unanesthetized and 10 μL was dropped into the right eye using a micropipette.

normal rats [3] = test: Evaluation of effect of increasing swallowing in normal rats; type: in vivo, rat; settings: anesthetized normal rats; for number of swallowings, Average: pharyngeal infusion 12 ml/h for 10 seconds, counted for 30 seconds
Experimental: Test Example 5: Evaluation of Effect of Increasing Swallowing in Normal Rats
This test is for evaluating the effect of increasing swallowing function of drugs. It has been reported that induction of the swallowing reflex in normal rats using NaCl-containing water suppresses the number of swallows, and the increase in swallowing function was evaluated using a NaCl-containing solvent. After the induction of anesthesia in Crl:CD(SD) male rats (7 to 8 rats per group, 8 to 9 weeks old, body weight 280 to 310 g: at the time of arrival), the animals were sheared under the jaw with clippers and held in a supine position on a heat pad kept at 37° C. to prevent limb movement. A rat sonde was inserted into the animals' mouths, and the tip of the sonde was retained in the pharynx. Under this condition, the test substance administration solution was administered at 12 ml/h for 10 seconds using an infusion pump, and the swallowing movements were measured for 30 seconds from the initiation of administration. Note that the vehicle used was saline solution containing 1% ethanol and 0.1% Tween 80.

Human TRPV1 = target: T1, Human TRPV1 (Homo sapiens, UniProt Q8NER1); test: Evaluation of agonistic properties using human TRPV1 transiently expressing cells; type: cell-based; settings: for pEC50: HEK293 cells transiently expressing human TRPV1 and apoaequorin, luminescence signal Rlu (Max-Min), read-out: TRPV1 EC50; for TRPV-1-agonistic activity (in words): evaluation test for TRPV-1-agonistic properties, summary of Tables 3 and 4
T1 construct: the TRPV1 gene (GenBank NP_542435.2) had been inserted; expressed in transfected cells; host or cells: HEK293 cells (cat #CCL-82.2, ATCC), transient transfection with pcDNA3.1
T1 sequence (Q8NER1 whole entry): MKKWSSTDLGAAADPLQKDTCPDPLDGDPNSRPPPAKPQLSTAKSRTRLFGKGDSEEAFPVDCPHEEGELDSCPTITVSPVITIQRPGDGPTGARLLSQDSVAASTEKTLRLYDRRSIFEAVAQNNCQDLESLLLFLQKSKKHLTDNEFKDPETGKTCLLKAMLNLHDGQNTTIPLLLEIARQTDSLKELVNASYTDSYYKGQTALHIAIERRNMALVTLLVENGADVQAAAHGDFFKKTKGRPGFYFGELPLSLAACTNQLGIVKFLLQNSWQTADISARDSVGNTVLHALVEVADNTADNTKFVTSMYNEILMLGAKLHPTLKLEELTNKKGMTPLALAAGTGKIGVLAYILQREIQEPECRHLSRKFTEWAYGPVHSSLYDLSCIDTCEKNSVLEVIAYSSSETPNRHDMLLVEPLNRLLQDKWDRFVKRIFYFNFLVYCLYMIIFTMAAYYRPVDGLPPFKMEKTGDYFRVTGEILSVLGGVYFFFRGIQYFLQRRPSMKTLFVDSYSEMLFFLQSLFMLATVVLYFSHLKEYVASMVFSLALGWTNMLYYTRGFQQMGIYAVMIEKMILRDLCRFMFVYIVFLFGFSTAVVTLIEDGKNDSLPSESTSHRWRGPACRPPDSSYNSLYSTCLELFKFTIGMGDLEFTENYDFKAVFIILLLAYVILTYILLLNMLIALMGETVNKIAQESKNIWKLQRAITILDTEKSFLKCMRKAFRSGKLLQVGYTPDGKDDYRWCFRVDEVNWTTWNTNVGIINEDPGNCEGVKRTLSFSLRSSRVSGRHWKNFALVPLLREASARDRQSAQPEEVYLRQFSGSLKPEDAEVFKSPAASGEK
Source text: Test Example 1: Evaluation of Agonistic Properties Using Human TRPV1 Transiently Expressing Cells
(1) Generation of Human TRPV1 Transiently Expressing Cells
Human TRPV1 transiently expressing cells were generated and subjected to culture. Specifically, HEK293 cells (cat #CCL-82.2, ATCC) were used as host cells. Human TRPV1 and apoaequorin were transiently expressed by introducing the mammalian cell expression pcDNA3.1 vector (cat #v790-20, Invitrogen) into which the TRPV1 gene (GenBank NP_542435.2) had been inserted.
The Dulbecco's Modified Eagle's Medium (DMEM) medium (cat #11550-043, Thermo Fisher Scientific) containing 10% inactivated fetal bovine serum (cat #10270-106, Thermo Fisher Scientific) was used as the medium, and the culture was carried out in tissue culture dishes (cat #3020-100, Iwaki). During the culture, cells were collected every 2 to 3 days by treating with PBS containing 10% 2.5 g/1-trypsin/[…] solution, phenol red (cat #32777-44, Nacalai Tesque), and passage culture was carried out.
Three days after the passage, cells were collected with 10% trypsin-PBS treatment at a state of about 80% confluency, suspended in a DMEM medium containing 10% fetal bovine serum to 4000 cells/35 μl/well, and seeded into 384-well plates (cat #353962, FALCON).
The day after seeding, Viviren (cat #E6492, Promega) was added (15 μl/well) to a final concentration of 4.5 μM/HBSS (cat #14065-056, Thermo Fisher Scientific)/90 mM HEPES (cat #17514-15, Nacalai Tesque)/0.1% BSA (cat #01281-84, Nacalai Tesque), and after centrifugation, the samples were allowed to stand at room temperature for 2 hours under light-shielded conditions.
(2) Preparation of Test Compounds
For the test compounds, dimethyl sulfoxide solutions were produced at a concentration 1000 times the final concentration, and from these solutions, solutions at concentration 10 times the final concentration were prepared with Hanks/20 mmol/L HEPES/0.10% BSA (cat #01281-84, Nacalai Tesque).
(3) Evaluation of TRPV1-Agonistic Properties
FDSS7000 (Hamamatsu Photonics K.K.) was used for detection of TRPV1 agonist-stimulated luminescence signals. The test compounds were added to plates to which the cells and luminescent substrates had been added. The luminescence signals (center wavelength: 465 nm) after addition of the test compounds were measured, and the Rlu (Max−Min) was calculated.

[4] = Evaluation test for metabolic stability to S9; type: in vitro ADME; settings: liver S9 fraction, 37° C., 15 minutes, final compound concentration 10 nM
Experimental: Test Example 4: Evaluation Test for Metabolic Stability to S9
The compounds were added to a reaction solution in which the liver S9 fraction was diluted with phosphate buffer, and incubation was initiated at 37° C. (final compound concentration 10 nM, final volume 300 μL). After incubation for 15 minutes, the reaction was stopped by adding the reaction solution to acetonitrile, and centrifugation was carried out. After filtering the supernatant through a filter, the amount of compounds was determined using LC/MS/MS. From the amount of compounds obtained, the residual rate 15 minutes after the initiation of the reaction was calculated relative to the amount of compounds before the initiation of the reaction (0 minutes).

proportion of water consumed with the test substance (% Vehicle) (Crl:CD(SD) rats; 1 μM in drinking water)	proportion of water consumed with the test substance (% Vehicle) (Crl:CD(SD) rats; 3 μM in drinking water)	pEC50 (Human TRPV1)	TRPV-1-agonistic activity (in words) (Human TRPV1)	proportion of water consumed with the test substance (% Vehicle) (Crl:CD(SD) rats; 10 μM in drinking water)	number of wiping behaviors versus control (Dunnett's test) (normal rats [2]; rat, in vivo)	Residual rate (%) [4]	Compound	number of swallows, Average, First time (normal rats [1]; 10 μM)	number of swallows, Average, Second time (normal rats [1]; 10 μM)	number of swallows, Average, Third time (normal rats [1]; 10 μM)	number of swallows, Average, Fourth time (normal rats [1]; 10 μM)	number of swallows, Average, Fifth time (normal rats [1]; 10 μM)	number of swallows at repeated administrations compared to the 1st administration (Dunnett's test) (normal rats [1])	number of swallowings compared to the solvent administered group (Dunnett's test) (normal rats [3])	number of swallowings, Average (normal rats [3])	also measured
103 % Vehicle	31 % Vehicle	8.20	–	22 % Vehicle	no significant difference	2%	COc1cc(CC(=O)Nc2cccc([C@H]3CC[C@@H](OC(C)=O)CC3)c2)ccc1O [Example 12, cis-4-{3-[2-(4-hydroxy-3-methoxyphenyl)acetamido]phenyl}cyclohexyl acetate]	–	–	–	–	–	–	–	19.4**	–
113 % Vehicle	86 % Vehicle	8.64	stronger TRPV-1-agonistic activity	55 % Vehicle	–	<1%	COc1cc(CC(=O)Nc2ccnc(-c3cccc(OC(=O)C(C)C)c3)c2)ccc1O [Example 26, 3-{4-[2-(4-hydroxy-3-methoxyphenyl)acetamido]pyridin-2-yl}phenyl 2-methylpropanoate]	–	–	–	–	–	–	–	–	–
–	–	–	–	–	no significant difference	–	COc1cc(CC(=O)Nc2ccnc(-c3cccc(OC(=O)C(C)C)c3)c2)ccc1O [Example 49, 3-{4-[2-(4-Hydroxy-3-methoxyphenyl)acetamido]pyridin-2-yl}phenyl 2-methylpropanoate hydrochloride]	12.3	12.4	12.9	11.3	14.4	no significant difference	significantly increased	15.0*	number of swallows, Average, First time (normal rats [1]; 30 μM): 17.1; number of swallows, Average, Second time (normal rats [1]; 30 μM): 13.9; number of swallows, Average, Third time (normal rats [1]; 30 μM): 14.1; number of swallows, Average, Fourth time (normal rats [1]; 30 μM): 12.4; number of swallows, Average, Fifth time (normal rats [1]; 30 μM): 12.7

The next lines start with the compound.

Compound	proportion of water consumed with the test substance (% Vehicle) (Crl:CD(SD) rats; 1 μM in drinking water)	proportion of water consumed with the test substance (% Vehicle) (Crl:CD(SD) rats; 3 μM in drinking water)	pEC50 (Human TRPV1)	TRPV-1-agonistic activity (in words) (Human TRPV1)	proportion of water consumed with the test substance (% Vehicle) (Crl:CD(SD) rats; 10 μM in drinking water)	number of wiping behaviors versus control (Dunnett's test) (normal rats [2]; rat, in vivo)	Residual rate (%) [4]	number of swallows, Average, First time (normal rats [1]; 10 μM)	number of swallows, Average, Second time (normal rats [1]; 10 μM)	number of swallows, Average, Third time (normal rats [1]; 10 μM)	number of swallows, Average, Fourth time (normal rats [1]; 10 μM)	number of swallows, Average, Fifth time (normal rats [1]; 10 μM)	number of swallows at repeated administrations compared to the 1st administration (Dunnett's test) (normal rats [1])	number of swallowings compared to the solvent administered group (Dunnett's test) (normal rats [3])	number of swallowings, Average (normal rats [3])	also measured
COc1cc(CNC(=O)CCCC/C=C/C(C)C)ccc1O [Capsaicin, capsaicin, reference compound]	13 % Vehicle	9 % Vehicle	–	–	–	–	–	18.2	13.2	14	9.7**	9.5**	significantly reduced at the 4th and 5th administrations	significantly increased	14.1*	proportion of water consumed with the test substance (% Vehicle) (Crl:CD(SD) rats; 0.3 μM in drinking water): 71 % Vehicle; Number of eye-wiping (Average ± Standard deviation) (normal rats [2]; 1 μM): 2.0 ± 2.3; Number of eye-wiping (Average ± Standard deviation) (normal rats [2]; 3 μM): 0.2 ± 0.4; Number of eye-wiping (Average ± Standard deviation) (normal rats [2]; 10 μM): 6.4 ± 6.3; Number of eye-wiping (Average ± Standard deviation) (normal rats [2]; 30 μM): 6.4 ± 4.4; Number of eye-wiping (Average ± Standard deviation) (normal rats [2]; 100 μM): 21.4 ± 9.7; number of wiping behaviors versus control (Dunnett's test) (normal rats [2]; eye drop in unanesthetized rats): significantly increased the number of wiping behaviors at concentrations of 30 μM and more
COc1cc(CC(=O)Nc2cccc(-c3cccc(OC(=O)C(C)C)c3)n2)ccc1O [Example 1, 3-{6-[2-(4-Hydroxy-3-methoxyphenyl)acetamido]pyridin-2-yl}phenyl 2-methylpropanoate]	90 % Vehicle	66 % Vehicle	8.59	stronger TRPV-1-agonistic activity	35 % Vehicle	no significant difference	<1%	–	–	–	–	–	–	–	7.6	–
COc1cc(CC(=O)Nc2cccc([C@H]3CC[C@@H](OC(=O)C4CCCCC4)CC3)c2)ccc1O [Example 2, cis-4-{3-[2-(4-Hydroxy-3-methoxyphenyl)acetamido]phenyl}cyclohexyl cyclohexanecarboxylate]	94 % Vehicle	80 % Vehicle	8.35	stronger TRPV-1-agonistic activity	71 % Vehicle	no significant difference	1%	–	–	–	–	–	–	significantly increased	17.8***	–
